Results on ten compounds are retold here after patent US20260184712A1, “Heterocyclic Compounds as ENT Inhibitors and Compounds for Use in the Treatment of Cancers” (iTeos Belgium SA, priority 2022, published 2026).

Molecules are shown by their SMILES.

The test concerns the target T1, Human ENT2 (Homo sapiens, UniProt Q14542).
T1 construct: expressed in transfected cells
T1 sequence (Q14542 1-456): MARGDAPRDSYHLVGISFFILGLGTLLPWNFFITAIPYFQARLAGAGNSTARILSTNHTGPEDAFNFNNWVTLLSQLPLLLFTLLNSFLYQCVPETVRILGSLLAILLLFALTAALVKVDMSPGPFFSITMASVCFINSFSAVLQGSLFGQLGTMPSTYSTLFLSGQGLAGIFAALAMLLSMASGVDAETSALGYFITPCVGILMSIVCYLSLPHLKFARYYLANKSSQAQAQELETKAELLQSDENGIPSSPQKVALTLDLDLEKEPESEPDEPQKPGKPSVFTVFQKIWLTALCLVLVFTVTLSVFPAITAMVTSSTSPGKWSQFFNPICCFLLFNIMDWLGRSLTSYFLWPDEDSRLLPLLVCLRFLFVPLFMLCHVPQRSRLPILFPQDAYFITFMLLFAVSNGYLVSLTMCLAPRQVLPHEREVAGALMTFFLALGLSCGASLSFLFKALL
In words: Adenosine uptake assay, ENT2-mediated transport in MDCKII cells. The note with it: MDCKIIENT2-LV cells, probe adenosine 0.5 μM, pre-incubation 30 min, incubation 10 min. It counts as cell-based. On the procedure:
The goal of this study was to determine the potency and selectivity of ENT1 inhibitors by measuring ENT1 and ENT2-mediated transport using an in vitro cellular uptake assay.
Human ENT1 and ENT2 transporters were stably expressed in Madin-Darby Canine Kidney II (MDCKII) cells via transduction. Cell lines overexpressing the relevant ENT1 or ENT2 molecules were preincubated with a dose range of the relevant compound for 30 minutes before introduction of the specific substrate at the concentration indicated in the Table assay parameters below. The transporter assay was conducted for the time specified in the Table assay parameters before the specific uptake of the substrate into the cells was quantified. Specific uptake was determined by comparing the uptake from the cells treated with the relevant compounds and the uptake by cells not overexpressing the transporter in question.
Specific uptake for each concentration of the test sample was normalized to the DMSO control value to generate a relative accumulation value (or relative transporter activity). Data were plotted against the log molar concentration of the test reagent used. IC50 values were generated with Prism version 9.4.1 and the following function: log(inhibitor) vs. response—Variable slope (four parameters).
Compound `C[C@H]1O[C@@H](n2c(NC3CCCC3)nc3c(OCc4ccc([N+](=O)[O-])cc4)ncnc32)[C@H](O)[C@@H]1O` [Compound 6] registered an IC50 of 0.02 to 1 µM.
On to `C[C@H]1O[C@@H](n2cnc3c(N4CCc5ccc([N+](=O)[O-])cc5C4)ncnc32)[C@H](O)[C@@H]1O` [Compound 151], for which the IC50 is > 1 µM.
The figure for `C[C@H]1O[C@@H](n2cnc3c(SCc4ccc([N+](=O)[O-])cc4)ncnc32)[C@H](O)[C@@H]1O` [Compound 147] is > 1 µM.
Turning to `OCCOC[C@H]1O[C@@H](n2cnc3c(OCc4ccc(OC(F)(F)F)cc4)ncnc32)[C@H](O)[C@@H]1O` [Compound 175], the IC50 was > 1 µM.
Next, `C[C@H]1O[C@@H](n2c(NC3CCOCC3)nc3c(OCc4ccc(C#N)cc4)ncnc32)[C@H](O)[C@@H]1O` [Compound 73]: 0.02 to 1 µM; `C[C@H]1O[C@@H](n2c(N[C@H]3CCC(F)(F)C3)nc3c(OCc4ccc(C#N)cc4)ncnc32)[C@H](O)[C@@H]1O` [Compound 82]: 0.02 to 1 µM; `C[C@H]1O[C@@H](n2cnc3c(OCc4ccc(OC(F)F)cc4)ncnc32)[C@H](O)[C@@H]1O` [Compound 173]: > 1 µM.
Turning to `C[C@H]1O[C@@H](n2c(NC3CCOCC3)nc3c(OCc4ccc(OC(F)F)nc4)ncnc32)[C@H](O)[C@@H]1O` [Compound 75], the IC50 lay within 0.02 to 1 µM.
In the case of `C[C@H]1O[C@@H](n2cnc3c(OCc4ccc([N+](=O)[O-])cc4)ncnc32)[C@H](O)[C@@H]1O` [Compound 166], the IC50 is > 1 µM.
For the compound `C[C@H]1O[C@@H](n2c(NC3CCC(O)CC3)nc3c(OCc4ccc([N+](=O)[O-])cc4)ncnc32)[C@H](O)[C@@H]1O` (stereo partly shown) [Compound 28], the IC50 was > 1 µM.

The IC50 is the concentration that gives 50% inhibition. The low end stands for greater potency in that assay, the high end for weaker potency in that assay.
